Experimental data: ChEMBL document CHEMBL1201862, “PubChem BioAssay data set” (2004)
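Cultured in 96-well plates, cells were exposed to test compound for 48 hours across five concentrations. GI50 is the concentration that inhibits growth by half.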 The source made the active and inactive calls. No stated cut-off is given here; in the data, active = GI50 up to about 1.1 µM and inactive = higher. Peptide text beside a SMILES is read from it. * marks the point of attachment. Cbz = O=C(OCc1ccccc1)*; Boc = CC(C)(C)OC(=O)*; OBn = c1ccc(CO*)cc1

How the values were obtained:
Experiment in all cases: DTP human tumour cell line panel, 48 h
U-251 = system: U-251
NCI/ADR-RES = system: NCI/ADR-RES
MDA-MB-435 = system: MDA-MB-435
PC-3 = system: PC-3
MDA-N = system: MDA-N
KM12 = system: KM12
SN12C = system: SN12C
COLO 205 = system: COLO 205
SF-295 = system: SF-295
IGROV-1 = system: IGROV-1
SK-OV-3 = system: SK-OV-3
M14 = system: M14
MOLT-4 = system: MOLT-4
786-0 = system: 786-0
OVCAR-3 = system: OVCAR-3
K562 = system: K562
EKVX = system: EKVX
SK-MEL-28 = system: SK-MEL-28
HT-29 = system: HT-29
SK-MEL-2 = system: SK-MEL-2

Measured: GI50

COC(=O)C(CCCCNC(=O)OCc1ccccc1)NC(=O)C(CCC(=O)OCc1ccccc1)NC(=O)OC(C)(C)C (centres undefined) (Boc-Glu(OBn)-Lys(Cbz)-OMe; configuration not given here)
inactive: U-251 > 100 µM | NCI/ADR-RES > 100 µM | MDA-MB-435 > 100 µM | PC-3 > 100 µM | MDA-N > 100 µM | KM12 > 100 µM | SN12C > 100 µM | COLO 205 > 100 µM | SF-295 64.4 µM | IGROV-1 > 100 µM | SK-OV-3 46.6 µM | M14 > 100 µM | MOLT-4 > 100 µM | 786-0 > 100 µM | OVCAR-3 73.1 µM | K562 > 100 µM | EKVX > 100 µM | SK-MEL-28 64 µM | HT-29 > 100 µM

COc1c(CC=C(C)C)c(O)c(C(CC(C)C)c2c(O)c(C(C)=O)c(O)c3c2OC(C(C)(C)O)C3)c(O)c1C(C)=O (centres undefined) [ACROFOLIONE A]
inactive: NCI/ADR-RES 3.82 µM | MDA-MB-435 4.86 µM | MDA-N 4.29 µM | SN12C 3.84 µM | COLO 205 4.46 µM | IGROV-1 3.65 µM | M14 5.56 µM | MOLT-4 3.4 µM | 786-0 4.89 µM | OVCAR-3 5.42 µM | K562 2.13 µM | EKVX 4.51 µM | SK-MEL-28 9.18 µM | HT-29 4.71 µM

CC(=O)NNC(=O)C1CCCCN1 (centres undefined)
inactive: SK-MEL-2 > 100 µM | U-251 > 100 µM | MDA-MB-435 > 100 µM | PC-3 > 100 µM | MDA-N > 100 µM | KM12 > 100 µM | SN12C > 100 µM | COLO 205 > 100 µM | SF-295 > 100 µM | IGROV-1 > 100 µM | SK-OV-3 > 100 µM | M14 > 100 µM | MOLT-4 > 100 µM | 786-0 > 100 µM | OVCAR-3 > 100 µM | K562 > 100 µM | EKVX > 100 µM | SK-MEL-28 > 100 µM | HT-29 > 100 µM

NC(=O)Cc1ncn(-c2ccccc2)n1
inactive: SK-MEL-2 > 100 µM | NCI/ADR-RES > 100 µM | MDA-MB-435 > 100 µM | MDA-N > 100 µM | KM12 > 100 µM | SN12C > 100 µM | COLO 205 > 100 µM | SF-295 > 100 µM | IGROV-1 > 100 µM | SK-OV-3 > 100 µM | M14 > 100 µM | MOLT-4 > 100 µM | 786-0 > 100 µM | OVCAR-3 > 100 µM | K562 > 100 µM | EKVX > 100 µM | HT-29 > 100 µM

Cn1cc(NC(=O)Nc2cc(C(=O)Nc3cc(C(=O)Nc4ccc(S(=O)(=O)O)c5cc(S(=O)(=O)O)ccc45)n(C)c3)n(C)c2)cc1C(=O)Nc1cc(C(=O)Nc2ccc(S(=O)(=O)O)c3cc(S(=O)(=O)O)ccc23)n(C)c1
inactive: U-251 > 100 µM | NCI/ADR-RES > 100 µM | MDA-MB-435 > 100 µM | PC-3 > 100 µM | MDA-N > 100 µM | KM12 > 100 µM | SN12C > 100 µM | COLO 205 > 100 µM | SF-295 > 100 µM | IGROV-1 > 100 µM | SK-OV-3 > 100 µM | M14 > 100 µM | MOLT-4 > 100 µM | 786-0 > 100 µM | OVCAR-3 > 100 µM | K562 > 100 µM | EKVX 34 µM | SK-MEL-28 > 100 µM | HT-29 > 100 µM

Cc1nc(O)c2ncn(CCO)c2n1
inactive: U-251 > 100 µM | NCI/ADR-RES > 100 µM | MDA-MB-435 > 100 µM | PC-3 > 100 µM | MDA-N > 100 µM | KM12 > 100 µM | SN12C > 100 µM | COLO 205 > 100 µM | SF-295 > 100 µM | IGROV-1 > 100 µM | SK-OV-3 > 100 µM | M14 > 100 µM | 786-0 > 100 µM | OVCAR-3 > 100 µM | K562 > 100 µM | EKVX > 100 µM | SK-MEL-28 > 100 µM | HT-29 > 100 µM

CC(=O)NCCCCNCCCNC(C)=O
inactive: U-251 > 100 µM | NCI/ADR-RES > 100 µM | MDA-MB-435 > 100 µM | MDA-N > 100 µM | KM12 > 100 µM | SN12C > 100 µM | COLO 205 > 100 µM | SF-295 > 100 µM | IGROV-1 > 100 µM | SK-OV-3 > 100 µM | M14 > 100 µM | MOLT-4 > 100 µM | 786-0 > 100 µM | K562 > 100 µM | EKVX > 100 µM | SK-MEL-28 > 100 µM | HT-29 > 100 µM

CC(=O)Nc1ccccc1NC1CC(C)N(c2ccccc2)N1C(C)=O (centres undefined)
inactive: MDA-MB-435 > 10 µM | PC-3 > 10 µM | MDA-N > 10 µM | KM12 > 10 µM | SN12C > 10 µM | COLO 205 > 10 µM | SF-295 > 10 µM | IGROV-1 > 10 µM | SK-OV-3 > 10 µM | M14 > 10 µM | MOLT-4 > 10 µM | 786-0 > 10 µM | K562 > 10 µM | EKVX > 10 µM | SK-MEL-28 > 10 µM | HT-29 > 10 µM
